Reference: PMC5923485 (Viruses, 2018)
Like-named read-outs stand apart in the source and are kept apart here.

Experiments:
RVFV MP12 ∆NSs-Luc = test: microbe, parasite or virus in culture; type: cell-based, Rift Valley fever virus; conditions: for inhibition at 100 µM: read-out: inhibition of RVFV MP12-luc
RVFV MP12 = type: cell-based, Rift Valley fever virus
[1] = test system: S6 ribosomal protein (Ser235/236) phosphorylation and RVFV NP; type: cell-based, mouse
in vitro = conditions: mouse
RVFV = conditions: mouse, in vivo; cited from earlier work

CC(C)CCN1c2nc(Nc3cc(F)c(O)c(F)c3)ncc2N(C)C(=O)C1C (centres unmarked) [BI-D1870]
effect of increasing drug concentration on viral replication (luciferase) (RVFV MP12 ∆NSs-Luc): viral replication increased
increase of infectious viral titer (RVFV MP12): approximately 0.5 log
levels of RVFV NP [1]: modestly increased
phosphorylation of S6 ribosomal protein (Ser 235/236) [1]: no apparent change

O=C(NOC[C@H](O)CO)c1ccc(F)c(F)c1Nc1ccc(I)cc1F [PD0325901]
EC50 (RVFV MP12 ∆NSs-Luc; Rift Valley fever virus, 18 h): > 50 µM
inhibition at 100 µM (RVFV MP12 ∆NSs-Luc; Rift Valley fever virus): 52%
effect on RVFV titers (RVFV MP12): minimal inhibition
levels of RVFV NP [1]: minimal inhibition
phosphorylation of S6 ribosomal protein (Ser 235/236) [1]: minimal inhibition
decrease in viability (H2.35 cells; mouse): ~ 20%
CC50 (in vitro): > 100 µM

CCc1cncnc1N1CCN(Cc2nc3ccc(C(F)(F)F)cc3[nH]2)CC1 [PF-4708671]
EC50 (RVFV MP12 ∆NSs-Luc; read-out: EC50): 17 µM
levels of RVFV NP [1]: decreased
phosphorylation of S6 ribosomal protein (Ser 235/236) [1]: decreased phosphorylation
CC50 (H2.35 cells): > 50 µM

CO[C@H]1C[C@@H]2CC[C@@H](C)[C@@](O)(O2)C(=O)C(=O)N2CCCC[C@H]2C(=O)O[C@H]([C@H](C)C[C@@H]2CC[C@@H](O)[C@H](OC)C2)CC(=O)[C@H](C)/C=C(\C)[C@@H](O)[C@@H](OC)C(=O)[C@H](C)C[C@H](C)/C=C/C=C/C=C/1C [Rapamycin]
EC50 (RVFV MP12 ∆NSs-Luc; Rift Valley fever virus, 18 h): 18 µM
levels of RVFV NP [1]: markedly decreased
phosphorylation of S6 ribosomal protein (Ser 235/236) [1]: markedly decreased
protection from RVFV induced pathogenesis (RVFV): protects mice
CC50 (in vitro): > 100 µM

C[S+]([O-])c1ccc(-c2nc(-c3ccncc3)c(-c3ccc(F)cc3)[nH]2)cc1 (centres unmarked) [SB203580]
inhibition at 100 µM (RVFV MP12 ∆NSs-Luc; Rift Valley fever virus): 45%
effect on RVFV titers (RVFV MP12): minimal inhibition
levels of RVFV NP [1]: minimal inhibition
phosphorylation of S6 ribosomal protein (Ser 235/236) [1]: minimal inhibition
cell toxicity (H2.35 cells): no appreciable cell toxicity
CC50 (in vitro): > 100 µM
